Molecules are shown by their SMILES.

Common to all, as to assay: Bliss excess, mean over the matrix (fraction); higher = more synergy
One assay concerns EW-24 (Ewing's Sarcoma). In a few lines:
(§1)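 Cell lines grown in DMEM/F12 or RPMI with 10% FBS were plated in 1536-well plates and held 24 hours at 37°C, 5% CO2 before 72 hours of exposure to two-drug dose matrices, with DMSO typically at 0.2%. CellTiter-Glo 2.0 luminescence gave viability, which was converted to inhibition. Vehicle wells were set to 0 and blank wells to 1. Combination Emax is the second-highest inhibition in the matrix, and Bliss excess is the observed combination effect minus the expected EA + EB − EA·EB, where EA and EB are the single-agent effects.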

Assay [1] concerns NUGC-3 (Gastric Carcinoma). In a few lines: as §1
A further assay deals with PWR-1E (Non-Cancerous). A digest of the protocol:
as §1

Assay [2] deals with NCI-H1915 (Non-Small Cell Lung Carcinoma). In a few lines:
as §1

The subject of assay [3] is OE19 (Esophageal Adenocarcinoma). In a few lines:
as §1

For assay [4], the system named is EFM-19 (Breast Carcinoma). A digest of the protocol:
as §1

Assay [5] deals with HSC-4 (Oral Cavity Carcinoma). In a few lines:
as §1

Assay [6] deals with SCC-15 (Oral Cavity Carcinoma). A digest of the protocol: as §1
The subject of assay [7] is Hs-766T (Pancreatic Carcinoma). A digest of the protocol: as §1
Assay [8] deals with KMOE-2 (Acute Myeloid Leukemia). In a few lines: as §1
The test system of assay [9] is NEC8 (Other Solid Carcinomas). In a few lines:
as §1

For assay [10], the system named is OVCAR-4 (Ovarian Carcinoma). A digest of the protocol:
as §1

The test system of assay [11] is EoL-1-cell (Acute Myeloid Leukemia). In a few lines: as §1
The next assay deals with D-263MG (Glioblastoma). In a few lines: as §1
The test system of assay [12] is NCI-H358 (Lung Adenocarcinoma). A digest of the protocol:
as §1

The next assay deals with TK10 (Kidney Carcinoma). In a few lines:
as §1

The next assay relates to NB69 (Neuroblastoma). A digest of the protocol: as §1
Assay [13] concerns OSC-20 (Oral Cavity Carcinoma). In a few lines: as §1
Assay [14] deals with LU-65 (Non-Small Cell Lung Carcinoma). In a few lines:
as §1

Assay [15] concerns TE-1 (Esophageal Squamous Cell Carcinoma). In a few lines: as §1

Take `CC1(C)CCC(CN2CCN(c3ccc(C(=O)NS(=O)(=O)c4ccc(NCC5CCOCC5)c([N+](=O)[O-])c4)c(Oc4cnc5[nH]ccc5c4)c3)CC2)=C(c2ccc(Cl)cc2)C1` [Venetoclax] + COc1cc(Nc2ncc3c(n2)-c2ccc(Cl)cc2C(c2c(F)cccc2OC)=NC3)ccc1C(=O)O [Alisertib] (first compound max 1 µM, 7x7, partner max 10 µM): the Bliss excess is 0.0205 in the assay with EW-24 (Ewing's Sarcoma); 0.0325 in [1]; -0.0103 in the assay on PWR-1E (Non-Cancerous); -0.0072 in [2]; -0.059 in assay [3]; -0.0049 in assay [4]. In addition, the Bliss excess in [5] is -0.0528; in [6] it was -0.0257; in assay [7], -0.0765; in assay [8], 0.0304; in assay [9], -0.0037; in assay [10], -0.0215. In addition, the Bliss excess was 0.0132 in assay [11]; 0.0522 in the assay on D-263MG (Glioblastoma); 0.0186 in assay [12]; -0.0694 in the assay on TK10 (Kidney Carcinoma); 0.0765 with NB69 (Neuroblastoma); -0.051 in assay [13]. The Bliss excess in assay [14] is -0.0164; in assay [15], 0.0279.
For the molecule `CC1(C)CCC(CN2CCN(c3ccc(C(=O)NS(=O)(=O)c4ccc(NCC5CCOCC5)c([N+](=O)[O-])c4)c(Oc4cnc5[nH]ccc5c4)c3)CC2)=C(c2ccc(Cl)cc2)C1` [Venetoclax] + C[C@@H]1COCCN1C2=NC(=NC(=C2)C3(CC3)[S@](=N)(=O)C)C4=C5C=CNC5=NC=C4 [AZD6738] (first compound max 1 µM, 7x7, partner max 10 µM), the Bliss excess with EW-24 (Ewing's Sarcoma) was 0.0218; in [1], -0.035; with PWR-1E (Non-Cancerous), -0.0747; in [2] it was -0.0084; in [3], -0.0691; in assay [4] it was -0.0814. The Bliss excess is -0.0509 in assay [5]; -0.06 in [6]; -0.0596 in [7]; 0.0071 in [8]; -0.0293 in assay [9]; -0.0384 in assay [10]. Moreover, the Bliss excess was 0.0267 in [11]; 0.0199 in the assay on D-263MG (Glioblastoma); -0.0224 in assay [12]; -0.102 in the assay on TK10 (Kidney Carcinoma); 0.0496 with NB69 (Neuroblastoma); -0.0599 in assay [13]. In addition, the figures for the Bliss excess in [14] and in assay [15] were -0.1 and -0.0131, respectively.
For `CC1(C)CCC(CN2CCN(c3ccc(C(=O)NS(=O)(=O)c4ccc(NCC5CCOCC5)c([N+](=O)[O-])c4)c(Oc4cnc5[nH]ccc5c4)c3)CC2)=C(c2ccc(Cl)cc2)C1` [Venetoclax] + C[C@@H](Nc1cc(F)cc(F)c1)c1cc(C(=O)N(C)C)cc2c(=O)cc(N3CCOCC3)oc12 [AZD8186] (first compound max 1 µM, 7x7, partner max 3 µM), the Bliss excess was -0.01 in the assay with EW-24 (Ewing's Sarcoma); -0.0192 in assay [1]; -0.0112 in the assay on PWR-1E (Non-Cancerous); -0.0264 in [2]; -0.0065 in assay [3]; -0.0099 in assay [4]. The Bliss excess in assay [5] is -0.0369; in assay [6], -0.0348; in assay [7] it was -0.0487; in [8], -0.0254; in assay [9], -0.0197; in [10], -0.0186. For the same molecule, the Bliss excess was 0.103 in assay [11]; -0.0044 in the assay with D-263MG (Glioblastoma); -0.0521 in assay [12]; -0.0887 with TK10 (Kidney Carcinoma); -0.221 in the assay on NB69 (Neuroblastoma); -0.0516 in [13]. The figures for the Bliss excess in assay [14] and in assay [15] were -0.0235 and 0.0042, respectively.
As to `CC1(C)CCC(CN2CCN(c3ccc(C(=O)NS(=O)(=O)c4ccc(NCC5CCOCC5)c([N+](=O)[O-])c4)c(Oc4cnc5[nH]ccc5c4)c3)CC2)=C(c2ccc(Cl)cc2)C1` [Venetoclax] + Cc1cc2ncnn2cc1Nc1ncc2c(n1)n(C1CCOCC1)c(=O)n2C [AZD7648] (first compound max 1 µM, 7x7, partner max 10 µM), the Bliss excess was -0.0699 in the assay with EW-24 (Ewing's Sarcoma); 0.0247 in assay [1]; -0.0152 in the assay with PWR-1E (Non-Cancerous); 0.0029 in assay [2]; -0.0253 in [3]; -0.0469 in assay [4]. Besides, the Bliss excess in assay [5] was -0.058; in assay [6] it was -0.0303; in assay [7], -0.0756; in [8], -0.0596; in [9] it was 0.0282; in assay [10], -0.0163. Further, the Bliss excess in [11] is 0.0489; in the assay on D-263MG (Glioblastoma), -0.0572; in assay [12], -0.0207; in the assay with TK10 (Kidney Carcinoma), -0.102; in the assay with NB69 (Neuroblastoma) it was 0.0069; in assay [13] it was -0.0062. Also, the Bliss excess in assay [14] is -0.0418; in assay [15], -0.0451.
On to `CC1(C)CCC(CN2CCN(c3ccc(C(=O)NS(=O)(=O)c4ccc(NCC5CCOCC5)c([N+](=O)[O-])c4)c(Oc4cnc5[nH]ccc5c4)c3)CC2)=C(c2ccc(Cl)cc2)C1` [Venetoclax] + Cn1cnc2c(F)c(Nc3ccc(Br)cc3Cl)c(C(=O)NOCCO)cc21 [Selumetinib] (first compound max 1 µM, 7x7, partner max 3 µM), for which the Bliss excess in the assay on EW-24 (Ewing's Sarcoma) is -0.0463; in [1] it was 0.0051; with PWR-1E (Non-Cancerous), -0.0327; in assay [2], -0.0541; in assay [3], -0.0484; in [4], -0.0607. In addition, the Bliss excess was -0.0211 in [5]; -0.0428 in assay [6]; -0.0346 in assay [7]; -0.0168 in [8]; -0.0151 in assay [9]; -0.02 in assay [10]. Further, the Bliss excess in assay [11] was 0.158; in the assay on D-263MG (Glioblastoma) it was -0.0292; in assay [12] it was -0.024; in the assay on TK10 (Kidney Carcinoma) it was -0.109; with NB69 (Neuroblastoma), 0.0179; in assay [13] it was -0.038. Moreover, the Bliss excess in assay [14] was -0.0153; in assay [15] it was 0.0008.

The values are drawn from the supplement of paper PMC11061612.
